Reference: patent publication US10662229B2, “Spider venom peptides and methods of use for modulating sodium channels” (priority 2016, dated 2020)
Where a SMILES comes first, the peptide text is derived from it. Bridges are numbered along the chain shown (N, C = ends). [ ]: non-standard residue; d: D form. Nle = CCCC[C@H](N)C(=O)O

How the values were obtained:
Type in all cases: cell-based
hNav1.1 = target: T1, hNav1.1 (Homo sapiens, UniProt P35498); test: FLIPR membrane potential assay, hNav1.1; conditions: for Selectivity for Nav1.7, Nav subtype 1.1: membrane potential assay
T1 construct: host or cells: HEK293
Experimental: (§1) HEK293 cells stably expressing hNav1.1, hNav1.2, hNav1.3, hNav1.4, hNav1.5, hNav1.6, hNav1.7 and […] (SB Drug Discovery, Glasgow, UK) were cultured in minimum essential media (MEM) containing 10% v/v FBS supplemented with L-glutamine (2 mM) and selection antibiotics G-418 (0.5 mg/mL), blasticidin (2-4 μg/mL) and zeocin (0.5 mg/mL) as recommended by the manufacturer. CHO cells stably expressing hNav1.8 in a tetracycline-inducible system (Chantest, OH, USA) were cultured in Ham's F-12 containing 10% v/v FBS and selection antibiotics as recommended by the manufacturer. To induce hNav1.8 expression, cells were cultured in the presence of tetracycline (1 μg/mL) for 24 h at 27° C. Cells were grown in a humidified 5% CO2 incubator at 37° C., grown to 70-80% confluence, and passaged every 3-4 days using TrypLE Express (Invitrogen).
(§2) Cells were plated 48 h before the assay on 384-well black walled imaging plates at a density of 10,000 to 15,000 cells per well and were loaded with red membrane potential dye for 30 min at 37° C. (Molecular Devices, CA, USA). One vial of bulk red membrane potential dye was reconstituted to a 10× stock solution with PSS and stored at −20° C. and diluted to 1× solution with PSS on the day of the assay. […] Changes in membrane potential were assessed using the FLIPR^TETRA (excitation 515 to 545 nm, emission 565 to 625 nm) every second for 300 s after adding agonists.

hNav1.3 = target: T2, hNav1.3 (Homo sapiens, UniProt Q9NY46); test: FLIPR membrane potential assay, hNav1.3; conditions: for Selectivity for Nav1.7, Nav subtype 1.3: membrane potential assay
T2 construct: host or cells: HEK293
T2 sequence (Q9NY46 whole entry): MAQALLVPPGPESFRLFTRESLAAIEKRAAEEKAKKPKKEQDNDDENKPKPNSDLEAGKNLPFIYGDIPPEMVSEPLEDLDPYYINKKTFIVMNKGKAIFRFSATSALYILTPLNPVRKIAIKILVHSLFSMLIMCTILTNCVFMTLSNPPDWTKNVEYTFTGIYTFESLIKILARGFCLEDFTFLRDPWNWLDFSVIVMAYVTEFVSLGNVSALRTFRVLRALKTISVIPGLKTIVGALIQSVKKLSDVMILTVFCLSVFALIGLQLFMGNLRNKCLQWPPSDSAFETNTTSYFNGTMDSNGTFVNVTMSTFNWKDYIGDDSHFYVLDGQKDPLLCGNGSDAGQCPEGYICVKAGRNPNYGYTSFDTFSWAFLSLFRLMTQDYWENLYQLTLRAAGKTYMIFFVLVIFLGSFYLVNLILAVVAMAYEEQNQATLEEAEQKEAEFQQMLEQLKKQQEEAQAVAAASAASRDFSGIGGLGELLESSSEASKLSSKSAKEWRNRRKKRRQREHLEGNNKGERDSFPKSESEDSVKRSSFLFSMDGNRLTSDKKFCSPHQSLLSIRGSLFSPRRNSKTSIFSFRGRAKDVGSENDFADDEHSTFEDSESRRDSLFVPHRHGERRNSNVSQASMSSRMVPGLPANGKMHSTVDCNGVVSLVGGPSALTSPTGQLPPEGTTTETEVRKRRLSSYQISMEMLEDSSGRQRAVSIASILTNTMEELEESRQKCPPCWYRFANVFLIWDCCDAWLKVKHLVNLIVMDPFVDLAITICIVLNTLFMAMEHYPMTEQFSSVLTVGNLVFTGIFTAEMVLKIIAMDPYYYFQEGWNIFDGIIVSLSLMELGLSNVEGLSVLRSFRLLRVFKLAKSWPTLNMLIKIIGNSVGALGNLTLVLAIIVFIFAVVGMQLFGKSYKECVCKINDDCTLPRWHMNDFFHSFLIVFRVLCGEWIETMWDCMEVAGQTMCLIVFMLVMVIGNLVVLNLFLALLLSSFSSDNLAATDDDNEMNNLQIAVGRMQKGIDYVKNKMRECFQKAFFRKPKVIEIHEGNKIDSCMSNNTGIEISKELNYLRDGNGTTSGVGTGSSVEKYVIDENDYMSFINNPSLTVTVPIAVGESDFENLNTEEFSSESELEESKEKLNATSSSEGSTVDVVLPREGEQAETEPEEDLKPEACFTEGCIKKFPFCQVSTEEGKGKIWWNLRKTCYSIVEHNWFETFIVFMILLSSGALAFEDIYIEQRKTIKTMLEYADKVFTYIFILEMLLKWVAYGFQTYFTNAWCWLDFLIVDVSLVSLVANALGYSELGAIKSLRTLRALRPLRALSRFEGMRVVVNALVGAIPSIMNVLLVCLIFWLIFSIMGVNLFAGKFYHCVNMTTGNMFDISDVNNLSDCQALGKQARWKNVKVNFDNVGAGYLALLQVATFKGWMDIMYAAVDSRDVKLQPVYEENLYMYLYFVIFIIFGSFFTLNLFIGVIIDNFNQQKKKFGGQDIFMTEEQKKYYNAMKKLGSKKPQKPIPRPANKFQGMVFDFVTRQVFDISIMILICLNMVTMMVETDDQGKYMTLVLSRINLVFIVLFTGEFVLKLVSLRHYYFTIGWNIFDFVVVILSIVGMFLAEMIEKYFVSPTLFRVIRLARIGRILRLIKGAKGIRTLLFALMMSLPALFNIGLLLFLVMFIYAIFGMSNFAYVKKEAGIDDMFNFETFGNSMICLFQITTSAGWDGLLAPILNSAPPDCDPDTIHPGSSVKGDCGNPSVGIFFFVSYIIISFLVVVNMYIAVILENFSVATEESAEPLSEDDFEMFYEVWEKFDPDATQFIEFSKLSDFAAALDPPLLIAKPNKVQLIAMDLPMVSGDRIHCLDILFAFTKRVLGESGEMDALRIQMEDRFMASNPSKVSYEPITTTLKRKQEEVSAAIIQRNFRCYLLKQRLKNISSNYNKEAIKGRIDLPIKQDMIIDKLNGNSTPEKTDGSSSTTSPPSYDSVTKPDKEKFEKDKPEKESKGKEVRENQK
Experimental: as §1, §2

hNav1.4 = target: T3, hNav1.4 (Homo sapiens, UniProt P35499); test: FLIPR membrane potential assay, hNav1.4; conditions: for Selectivity for Nav1.7, Nav subtype 1.4: membrane potential assay
T3 construct: host or cells: HEK293
Experimental: as §1, §2

hNav1.5 = target: T4, hNav1.5 (Homo sapiens, UniProt Q14524); test: FLIPR membrane potential assay, hNav1.5; conditions: for Selectivity for Nav1.7, Nav subtype 1.5: membrane potential assay
T4 construct: host or cells: HEK293
Experimental: as §1, §2

hNav1.6 = target: T5, hNav1.6 (Homo sapiens, UniProt Q9UQD0); test: FLIPR membrane potential assay, hNav1.6; conditions: for Selectivity for Nav1.7, Nav subtype 1.6: membrane potential assay
T5 construct: host or cells: HEK293
Experimental: as §1, §2

hNav1.7 = target: T6, hNav1.7 (Homo sapiens, UniProt Q15858); test: FLIPR membrane potential assay, hNav1.7; conditions: for Selectivity for Nav1.7, Nav subtype 1.7: membrane potential assay, reference subtype
T6 construct: host or cells: HEK293
T6 sequence (Q15858 whole entry): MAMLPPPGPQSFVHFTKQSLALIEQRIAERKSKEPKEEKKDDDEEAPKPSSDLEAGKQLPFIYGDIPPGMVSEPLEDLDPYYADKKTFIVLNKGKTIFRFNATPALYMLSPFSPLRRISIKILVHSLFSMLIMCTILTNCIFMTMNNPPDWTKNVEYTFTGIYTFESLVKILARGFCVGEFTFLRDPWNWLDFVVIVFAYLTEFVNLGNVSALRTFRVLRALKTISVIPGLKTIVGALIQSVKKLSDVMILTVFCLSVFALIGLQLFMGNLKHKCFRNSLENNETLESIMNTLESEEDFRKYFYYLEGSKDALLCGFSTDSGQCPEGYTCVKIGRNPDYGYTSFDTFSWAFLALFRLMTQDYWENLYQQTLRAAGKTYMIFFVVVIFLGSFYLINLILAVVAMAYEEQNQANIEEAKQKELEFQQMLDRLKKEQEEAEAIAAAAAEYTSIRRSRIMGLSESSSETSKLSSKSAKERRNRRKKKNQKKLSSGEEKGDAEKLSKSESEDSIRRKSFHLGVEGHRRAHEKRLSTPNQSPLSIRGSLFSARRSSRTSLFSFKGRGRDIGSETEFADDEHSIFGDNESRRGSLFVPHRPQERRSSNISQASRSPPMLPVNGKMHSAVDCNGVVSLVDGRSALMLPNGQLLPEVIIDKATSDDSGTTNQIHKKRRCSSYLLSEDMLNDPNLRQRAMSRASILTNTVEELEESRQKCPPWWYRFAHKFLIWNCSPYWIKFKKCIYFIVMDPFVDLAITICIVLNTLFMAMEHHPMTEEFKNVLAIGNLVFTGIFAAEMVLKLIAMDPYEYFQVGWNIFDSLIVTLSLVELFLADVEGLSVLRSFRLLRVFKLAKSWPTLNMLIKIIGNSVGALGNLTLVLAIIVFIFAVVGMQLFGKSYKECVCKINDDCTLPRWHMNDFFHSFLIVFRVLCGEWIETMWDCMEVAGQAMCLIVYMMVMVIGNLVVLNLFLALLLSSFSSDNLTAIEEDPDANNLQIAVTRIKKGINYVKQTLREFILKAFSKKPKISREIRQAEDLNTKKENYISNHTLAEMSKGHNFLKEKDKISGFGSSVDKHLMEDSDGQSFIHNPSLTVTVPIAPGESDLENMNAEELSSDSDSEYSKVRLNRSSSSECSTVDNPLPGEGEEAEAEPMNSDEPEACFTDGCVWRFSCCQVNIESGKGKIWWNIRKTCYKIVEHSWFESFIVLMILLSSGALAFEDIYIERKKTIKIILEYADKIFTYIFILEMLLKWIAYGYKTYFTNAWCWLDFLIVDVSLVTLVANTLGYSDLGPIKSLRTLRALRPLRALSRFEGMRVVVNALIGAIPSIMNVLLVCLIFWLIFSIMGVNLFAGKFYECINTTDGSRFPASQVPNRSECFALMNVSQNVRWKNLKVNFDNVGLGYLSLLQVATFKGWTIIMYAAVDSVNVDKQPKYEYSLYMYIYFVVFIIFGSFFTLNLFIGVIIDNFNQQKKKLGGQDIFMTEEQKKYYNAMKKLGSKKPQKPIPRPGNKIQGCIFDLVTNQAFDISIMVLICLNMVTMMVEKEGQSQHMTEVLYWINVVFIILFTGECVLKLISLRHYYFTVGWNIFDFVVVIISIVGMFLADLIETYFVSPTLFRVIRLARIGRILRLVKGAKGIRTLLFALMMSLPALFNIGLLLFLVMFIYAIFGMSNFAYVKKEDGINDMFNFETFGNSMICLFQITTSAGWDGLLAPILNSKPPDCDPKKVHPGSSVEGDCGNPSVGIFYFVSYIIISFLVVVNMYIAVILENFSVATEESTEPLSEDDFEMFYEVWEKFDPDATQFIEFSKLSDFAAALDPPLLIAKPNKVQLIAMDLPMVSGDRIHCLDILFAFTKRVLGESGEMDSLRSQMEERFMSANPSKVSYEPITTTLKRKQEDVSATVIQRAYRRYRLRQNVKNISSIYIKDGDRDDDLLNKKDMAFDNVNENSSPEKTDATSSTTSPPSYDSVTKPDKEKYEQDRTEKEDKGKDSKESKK
Experimental: as §1, §2

hNav1.2 = target: T7, hNav1.2 (Homo sapiens, UniProt Q99250); test: FLIPR membrane potential assay, hNav1.2; conditions: for Selectivity for Nav1.7, Nav subtype 1.2: membrane potential assay
T7 construct: host or cells: HEK293
Experimental: as §1, §2

hNav1.8 = target: T8, hNav1.8 (Homo sapiens, UniProt Q9Y5Y9); test: FLIPR membrane potential assay, hNav1.8; conditions: for Selectivity for Nav1.7, Nav subtype 1.8: membrane potential assay
T8 construct: host or cells: HEK293
Experimental: as §1, §2

SMILES: CSCC[C@@H]1NC(=O)[C@H](Cc2ccc(O)cc2)NC(=O)[C@H](CCCNC(=N)N)NC(=O)[C@@H](NC(=O)[C@@H](N)CC(=O)O)CSSC[C@@H]2NC(=O)[C@@H]3CSSC[C@@H](C(=O)N[C@@H](C)C(=O)N[C@@H](Cc4c[nH]c5ccccc45)C(=O)N[C@@H](CC(=O)O)C(=O)N[C@@H](Cc4ccccc4)C(=O)N[C@H](C(=O)N[C@@H](Cc4ccccc4)C(=O)N[C@H](C(=O)O)[C@@H](C)O)[C@@H](C)O)NC(=O)[C@H](Cc4ccc(O)cc4)NC(=O)[C@H](CCCCN)NC(=O)[C@H](CCSC)NC(=O)[C@H](CCCNC(=N)N)NC(=O)[C@H](CCCNC(=N)N)NC(=O)[C@H](CCCCN)NC(=O)[C@H](CSSC[C@H](NC(=O)[C@H](CC(=O)O)NC(=O)CNC(=O)[C@H](Cc4ccccc4)NC1=O)C(=O)N[C@@H](CCC(=O)O)C(=O)N[C@@H](CCCCN)C(=O)N[C@@H](CC(=O)O)C(=O)N[C@@H](CCC(=O)O)C(=O)N[C@@H](CC(=O)O)C(=O)N3)NC(=O)CNC(=O)[C@H](CC(C)C)NC(=O)[C@H](Cc1c[nH]cn1)NC(=O)[C@H](CCCCN)NC2=O [[K24R]Pnc1a] (H-DCRYMFGDCEKDEDCCKHLGCKRRMKYCAWDFTFT-OH; disulfide 2-16, 9-21, 15-28)
- IC50 (hNav1.1): 856 nM
- Selectivity for Nav1.7, Nav subtype 1.1 (hNav1.1): 27
- IC50 (hNav1.3): 8000 nM
- Selectivity for Nav1.7, Nav subtype 1.3 (hNav1.3): 260
- IC50 (hNav1.4): 3000 nM
- Selectivity for Nav1.7, Nav subtype 1.4 (hNav1.4): 102
- IC50 (hNav1.5): > 30000 nM
- Selectivity for Nav1.7, Nav subtype 1.5 (hNav1.5): >900
- IC50 (hNav1.6): > 30000 nM
- Selectivity for Nav1.7, Nav subtype 1.6 (hNav1.6): >900
- IC50 (hNav1.7): 31 nM
- Selectivity for Nav1.7, Nav subtype 1.7 (hNav1.7): 1
- IC50 (hNav1.2): 414 nM
- Selectivity for Nav1.7, Nav subtype 1.2 (hNav1.2): 13
- IC50 (hNav1.8): > 30000 nM
- Selectivity for Nav1.7, Nav subtype 1.8 (hNav1.8): >900

SMILES: CCCC[C@@H]1NC(=O)[C@H](Cc2ccc(O)cc2)NC(=O)[C@H](CCCNC(=N)N)NC(=O)[C@@H](NC(=O)[C@@H](N)CC(=O)O)CSSC[C@@H]2NC(=O)[C@@H]3CSSC[C@@H](C(=O)N[C@@H](C)C(=O)N[C@@H](Cc4c[nH]c5ccccc45)C(=O)N[C@@H](CC(=O)O)C(=O)N[C@@H](Cc4ccccc4)C(=O)N[C@H](C(=O)N[C@@H](Cc4ccccc4)C(=O)N[C@H](C(=O)O)[C@@H](C)O)[C@@H](C)O)NC(=O)[C@H](Cc4ccc(O)cc4)NC(=O)[C@H](CCCCN)NC(=O)[C@H](CCCC)NC(=O)[C@H](CCCCN)NC(=O)[C@H](CCCNC(=N)N)NC(=O)[C@H](CCCCN)NC(=O)[C@H](CSSC[C@H](NC(=O)[C@H](CC(=O)O)NC(=O)CNC(=O)[C@H](Cc4ccccc4)NC1=O)C(=O)N[C@@H](CCC(=O)O)C(=O)N[C@@H](CCCCN)C(=O)N[C@@H](CC(=O)O)C(=O)N[C@@H](CCC(=O)O)C(=O)N[C@@H](CC(=O)O)C(=O)N3)NC(=O)CNC(=O)[C@H](CC(C)C)NC(=O)[C@H](Cc1c[nH]cn1)NC(=O)[C@H](CCCCN)NC2=O [[M5,25Nle]Pnc1a] (H-DCRY[Nle]FGDCEKDEDCCKHLGCKRK[Nle]KYCAWDFTFT-OH; disulfide 2-16, 9-21, 15-28)
- IC50 (hNav1.1): 2000 nM
- Selectivity for Nav1.7, Nav subtype 1.1 (hNav1.1): 17
- IC50 (hNav1.3): 1000 nM
- Selectivity for Nav1.7, Nav subtype 1.3 (hNav1.3): 10
- IC50 (hNav1.4): 3000 nM
- Selectivity for Nav1.7, Nav subtype 1.4 (hNav1.4): 22
- IC50 (hNav1.5): > 30000 nM
- Selectivity for Nav1.7, Nav subtype 1.5 (hNav1.5): >260
- IC50 (hNav1.6): 5000 nM
- Selectivity for Nav1.7, Nav subtype 1.6 (hNav1.6): 41
- IC50 (hNav1.7): 116 nM
- Selectivity for Nav1.7, Nav subtype 1.7 (hNav1.7): 1
- IC50 (hNav1.2): 773 nM
- Selectivity for Nav1.7, Nav subtype 1.2 (hNav1.2): 7
- IC50 (hNav1.8): > 30000 nM
- Selectivity for Nav1.7, Nav subtype 1.8 (hNav1.8): >260
